{"source": "patent US20140323952A1", "about": "“METHODS FOR PROSTATECTOMY” (priority 2011, published 2014)", "key": {"[1]": {"test_system": "men undergoing robotic radical prostatectomy", "experiment": "Ongoing study of the 57 subjects plus 23 new subjects (80 men): intercourse and pad use after prostatectomy with phenylephrine infiltration", "type": "in vivo, human", "details": "for Intercourse: reflects use of phosphodiesterase inhibitors", "method": "(§1) A group of men who were in need of a prostatectomy were tested. All men undergoing robotic radical prostatectomy after June 2009 were given informed consent regard to and asked to participate in a prospective study of outcomes of robotic radical prostatectomy. Baseline data were obtained preoperatively with regard to sexual and urinary function using self-administered International Index of Erectile Function and International Prostate Symptom Score Questionnaires. Additionally, patients were asked if they had experienced intercourse, urinary incontinence or pad used in the 4 weeks prior to the initial screening visit. Only patients with a pre-operative score on the International Index of Erectile Function of greater than or equal to 20 were included in the post-operative analysis of continence and potency.\n(§2) A standard method of prostatectomy was used except that hemostasis was achieved by the infiltration of phenylephrine at a concentration of 100 micrograms per milliliter into the anterior and antero lateral bladder neck (1000 micrograms), right lateral bladder neck (1,000 micrograms), left lateral bladder neck (1,000 micrograms), right prostatic vascular pedicle and neurovascular margin (1,000 micrograms) and left prostatic vascular pedicles and neurovascular margin (1,000 micrograms) for a total of 5,000 micrograms of the agent. Sharp cold dissection was then performed with either the Snap Blade or the Shears with rare spot use of bipolar cautery. Monopolar cautery was not used during any part of the procedure.\nContinence was assessed in the post-operative period by pad use with one pad per day or less being considered as “socially continent.” The use of zero pads per day was considered “absolutely continent” Or “complete continence.” The time necessary to achieve each of these milestones was recorded individually for each subject. The end point of sexual recovery was intercourse, and the experience of intercourse was monitored at each post-operative visit. Intercourse was experienced by 21% of men within the 4 weeks prior to initial evaluation. It is noteworthy that two (2) weeks lapsed between the surgery and the removal of the urinary catheter, thus the initial evaluation of sexual function occurred 2 weeks following removal of the catheter, or 4 weeks following surgery. Additional follow-up evaluations were done at 8 and 12 weeks post-operative time points. […] Intercourse at the 9 month interval (39 weeks) was established by phone interview in those men not reporting intercourse at the 6 month visit, and for whom interim follow up was not scheduled.\nAn ongoing study of the 57 subjects described above as well as an additional 23 new subjects was also performed."}, "[2]": {"test_system": "men undergoing robotic radical prostatectomy", "experiment": "Prospective outcome study of robotic radical prostatectomy with phenylephrine infiltration for hemostasis (57 men, IIEF >= 20): continence by pad use, potency by intercourse", "type": "in vivo, human", "method": "as §1, §2\nContinence was assessed in the post-operative period by pad use with one pad per day or less being considered as “socially continent.” The use of zero pads per day was considered “absolutely continent” Or “complete continence.” The time necessary to achieve each of these milestones was recorded individually for each subject. The end point of sexual recovery was intercourse, and the experience of intercourse was monitored at each post-operative visit. Intercourse was experienced by 21% of men within the 4 weeks prior to initial evaluation. […] Additional follow-up evaluations were done at 8 and 12 weeks post-operative time points. […] Intercourse at the 9 month interval (39 weeks) was established by phone interview in those men not reporting intercourse at the 6 month visit, and for whom interim follow up was not scheduled.\nAll patients in this study were given informed consent for participation in a prospective study of outcomes of robotic radical prostatectomy. No patients withdrew. Fifty seven (57) men among all patients operated had IIEF scores of 20 or greater. Two patients refused or were lost to follow-up for other reasons. All observations were collected in a prospective fashion and maintained in our IRB approved database of patients having robotic surgery.\nAnalysis of differences in means was performed by Student's t-test. The differences in proportions were calculated by the Chi-squared test. The probability of return of social continence, absolute continence, and the probability of intercourse was calculated by the Kaplan Meier function."}, "[3]": {"details": "12 weeks (3 mos) post op, 77 patients"}, "[4]": {"details": "26 weeks (6 mos) post op, 71 patients"}, "[5]": {"details": "39 weeks (9 mos) post op, 63 patients"}, "[6]": {"details": "52 weeks (12 mos) post op, 53 patients"}, "[7]": {"details": "78 weeks (1.5 yrs) post op, 30 patients"}, "[8]": {"details": "104 weeks (2.0 yrs) post op, 14 patients"}, "[9]": {"details": "within about 52 weeks following surgery, FIG. 4"}, "[10]": {"details": "2 weeks postoperative, 57 patients"}, "[11]": {"details": "4 weeks postoperative, 57 patients"}, "[12]": {"details": "6 weeks postoperative, 57 patients"}, "[13]": {"details": "8 weeks postoperative, 56 patients"}, "[14]": {"details": "12 weeks postoperative, 55 patients"}, "[15]": {"details": "26 weeks postoperative, 46 patients"}, "[16]": {"details": "39 weeks postoperative, 38 patients"}, "[17]": {"details": "52 weeks postoperative, 37 patients"}, "[18]": {"details": "78 weeks postoperative, 23 patients"}}, "data": [{"compound": "CNC[C@H](O)c1cccc(O)c1", "note": "[phenylephrine]", "values": [{"measurement": "One or less pad per 24 hours", "setting": "[1]; 2 weeks post op, 79 patients", "value": 32, "unit": "%"}, {"measurement": "Zero Pads per 24 hours", "setting": "[1]; 2 weeks post op, 79 patients", "value": 18, "unit": "%"}, {"measurement": "Intercourse", "setting": "[1]; 2 weeks post op, 79 patients", "value": 10, "unit": "%"}, {"measurement": "One or less pad per 24 hours", "setting": "[1]; 4 weeks post op, 78 patients", "value": 49, "unit": "%"}, {"measurement": "Zero Pads per 24 hours", "setting": "[1]; 4 weeks post op, 78 patients", "value": 28, "unit": "%"}, {"measurement": "Intercourse", "setting": "[1]; 4 weeks post op, 78 patients", "value": 19, "unit": "%"}, {"measurement": "One or less pad per 24 hours", "setting": "[1]; 6 weeks post op, 77 patients", "value": 58, "unit": "%"}, {"measurement": "Zero Pads per 24 hours", "setting": "[1]; 6 weeks post op, 77 patients", "value": 27, "unit": "%"}, {"measurement": "Intercourse", "setting": "[1]; 6 weeks post op, 77 patients", "value": 25, "unit": "%"}, {"measurement": "One or less pad per 24 hours", "setting": "[1]; 8 weeks post op, 77 patients", "value": 60, "unit": "%"}, {"measurement": "Zero Pads per 24 hours", "setting": "[1]; 8 weeks post op, 77 patients", "value": 28, "unit": "%"}, {"measurement": "Intercourse", "setting": "[1]; 8 weeks post op, 77 patients", "value": 27, "unit": "%"}, {"measurement": "One or less pad per 24 hours", "setting": "[1]; [3]", "value": 73, "unit": "%"}, {"measurement": "Zero Pads per 24 hours", "setting": "[1]; [3]", "value": 36, "unit": "%"}, {"measurement": "Intercourse", "setting": "[1]; [3]", "value": 42, "unit": "%"}, {"measurement": "One or less pad per 24 hours", "setting": "[1]; [4]", "value": 89, "unit": "%"}, {"measurement": "Zero Pads per 24 hours", "setting": "[1]; [4]", "value": 52, "unit": "%"}, {"measurement": "Intercourse", "setting": "[1]; [4]", "value": 58, "unit": "%"}, {"measurement": "One or less pad per 24 hours", "setting": "[1]; [5]", "value": 92, "unit": "%"}, {"measurement": "Zero Pads per 24 hours", "setting": "[1]; [5]", "value": 65, "unit": "%"}, {"measurement": "Intercourse", "setting": "[1]; [5]", "value": 67, "unit": "%"}, {"measurement": "One or less pad per 24 hours", "setting": "[1]; [6]", "value": 100, "unit": "%"}, {"measurement": "Zero Pads per 24 hours", "setting": "[1]; [6]", "value": 85, "unit": "%"}, {"measurement": "Intercourse", "setting": "[1]; [6]", "value": 83, "unit": "%"}, {"measurement": "One or less pad per 24 hours", "setting": "[1]; [7]", "value": 100, "unit": "%"}, {"measurement": "Zero Pads per 24 hours", "setting": "[1]; [7]", "value": 83, "unit": "%"}, {"measurement": "Intercourse", "setting": "[1]; [7]", "value": 77, "unit": "%"}, {"measurement": "One or less pad per 24 hours", "setting": "[1]; [8]", "value": 100, "unit": "%"}, {"measurement": "Zero Pads per 24 hours", "setting": "[1]; [8]", "value": 93, "unit": "%"}, {"measurement": "Intercourse", "setting": "[1]; [8]", "value": 93, "unit": "%"}, {"measurement": "time within which social continence was achieved for all subjects", "setting": "[1]; following surgery, FIG. 4", "value": "≤ 52", "unit": "weeks"}, {"measurement": "One or less pad per 24 hours", "setting": "[1]; week 0 (Pre Op), 80 patients", "value": 100, "unit": "%"}, {"measurement": "Zero Pads per 24 hours", "setting": "[1]; week 0 (Pre Op), 80 patients", "value": 99, "unit": "%"}, {"measurement": "Intercourse", "setting": "[1]; week 0 (Pre Op), 80 patients", "value": 90, "unit": "%"}, {"measurement": "subjects achieving absolute continence", "setting": "[1]; [9]", "value": "more than 80%"}, {"measurement": "subjects achieving sexual function (intercourse)", "setting": "[1]; [9]", "value": "about 80%"}, {"measurement": "Complete Continence Number (%)", "setting": "[2]; [10]", "value": "10 (18%) Number (%)"}, {"measurement": "Potency Number (%)", "setting": "[2]; [10]", "value": "7 (12%) Number (%)"}, {"measurement": "Social Continence Number (%)", "setting": "[2]; 2 weeks postoperative, 57 patients, 5,000 micrograms phenylephrine infiltrated", "value": "20 (35%) Number (%)"}, {"measurement": "Complete Continence Number (%)", "setting": "[2]; [11]", "value": "17 (30%) Number (%)"}, {"measurement": "Potency Number (%)", "setting": "[2]; [11]", "value": "12 (21%) Number (%)"}, {"measurement": "Social Continence Number (%)", "setting": "[2]; [11]", "value": "31 (54%) Number (%)"}, {"measurement": "Complete Continence Number (%)", "setting": "[2]; [12]", "value": "16 (28%) Number (%)"}, {"measurement": "Potency Number (%)", "setting": "[2]; [12]", "value": "14 (25%) Number (%)"}, {"measurement": "Social Continence Number (%)", "setting": "[2]; [12]", "value": "32 (56%) Number (%)"}, {"measurement": "Complete Continence Number (%)", "setting": "[2]; [13]", "value": "17 (30%) Number (%)"}, {"measurement": "Potency Number (%)", "setting": "[2]; [13]", "value": "15 (27%) Number (%)"}, {"measurement": "Social Continence Number (%)", "setting": "[2]; [13]", "value": "33 (58%) Number (%)"}, {"measurement": "Complete Continence Number (%)", "setting": "[2]; [14]", "value": "20 (36%) Number (%)"}, {"measurement": "Potency Number (%)", "setting": "[2]; [14]", "value": "23 (42%) Number (%)"}, {"measurement": "Social Continence Number (%)", "setting": "[2]; [14]", "value": "40 (73%) Number (%)"}, {"measurement": "Complete Continence Number (%)", "setting": "[2]; [15]", "value": "26 (57%) Number (%)"}, {"measurement": "Potency Number (%)", "setting": "[2]; [15]", "value": "24 (52%) Number (%)"}, {"measurement": "Social Continence Number (%)", "setting": "[2]; [15]", "value": "40 (87%) Number (%)"}, {"measurement": "Complete Continence Number (%)", "setting": "[2]; [16]", "value": "24 (63%) Number (%)"}, {"measurement": "Potency Number (%)", "setting": "[2]; [16]", "value": "20 (53%) Number (%)"}, {"measurement": "Social Continence Number (%)", "setting": "[2]; [16]", "value": "34 (89%) Number (%)"}, {"measurement": "subjects at risk with social continence", "setting": "[2]; 52-week mark, Kaplan Meier plot FIG. 1", "value": 100, "unit": "%"}, {"measurement": "Complete Continence Number (%)", "setting": "[2]; [17]", "value": "35 (95%) Number (%)"}, {"measurement": "Potency Number (%)", "setting": "[2]; [17]", "value": "34 (92%) Number (%)"}, {"measurement": "Social Continence Number (%)", "setting": "[2]; [17]", "value": "37 (100%) Number (%)"}, {"measurement": "subjects with complete continence", "setting": "[2]; 78-week time point, Kaplan Meier plot FIG. 2", "value": 100, "unit": "%"}, {"measurement": "potency following surgery", "setting": "[2]; 78-week time point, Kaplan Meier plot FIG. 3", "value": "Complete potency was achieved"}, {"measurement": "Complete Continence Number (%)", "setting": "[2]; [18]", "value": "23 (100%) Number (%)"}, {"measurement": "Potency Number (%)", "setting": "[2]; [18]", "value": "23 (100%) Number (%)"}, {"measurement": "Social Continence Number (%)", "setting": "[2]; [18]", "value": "23 (100%) Number (%)"}, {"measurement": "Potency Number (%)", "setting": "[2]; week 0 (pre-surgical baseline), 57 patients, intercourse", "value": "51 (89%) Number (%)"}, {"measurement": "Social Continence Number (%)", "setting": "[2]; week 0 (pre-surgical baseline), 57 patients, one pad per day or less", "value": "57 (100%) Number (%)"}, {"measurement": "Complete Continence Number (%)", "setting": "[2]; week 0 (pre-surgical baseline), 57 patients, zero pads per day", "value": "57 (100%) Number (%)"}, {"measurement": "men who experienced intercourse", "setting": "[2]; within the 4 weeks prior to initial evaluation (4 weeks following surgery)", "value": 21, "unit": "%"}]}]}
